{
  "source": "patent US20230085307A1",
  "about": "“PYRIDAZINONE COMPOUND AND HERBICIDE” (NISSAN CHEMICAL CORPORATION, priority 2019, published 2023)",
  "data": [
    {"test_system": "late watergrass", "test": "Test Example 1: herbicidal activity, application before weed generation under submerged conditions (Table 16, symbol A)", "type": "in vivo, late watergrass (Echinochloa oryzicola)", "settings": "amount of applied herbicide 320 g/ha", "method_in_brief": "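Alluvial soil was flooded to 4 cm depth, weed seeds were sown mixed and 2.5-leaf rice seedlings were transplanted. On sowing day, the compound's emulsion, diluted in water to a set dose, was applied to the water surface. Plants grew at 25–30 °C and were scored 0–5 after three weeks.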", "values": [
      {"smiles": "COc1ccccc1-c1sc2cc(F)ccc2c1-c1c(O)c(C)nn(C)c1=O", "note": "[3-003]", "Herbicidal effect, A: late watergrass": "3 (Herbicidal rate of 40% or more and less than 70%)"},
      {"smiles": "CCOc1ccccc1-c1sc2cc(F)ccc2c1-c1c(O)c(C)nn(C)c1=O", "note": "[3-006]", "Herbicidal effect, A: late watergrass": "5 (Herbicidal rate of 90% or more (almost completely withered))"}
    ]},
    {"test_system": "oval-leafed pondweed", "test": "Test Example 2: herbicidal activity, application during weed generation under submerged conditions (Table 17, symbol C)", "type": "in vivo, oval-leafed pondweed (Monochoria vaginalis)", "settings": "AAH 320 g/ha; application during weed generation, submerged conditions", "method_in_brief": "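Alluvial soil in Wagner pots was flooded to 4 cm depth and sown with the three weeds together; pots were kept in a greenhouse at 25° C. to 30° C. At the one to two leaf stage, an emulsion formulation diluted in water to a set rate went onto the water surface; scored three weeks later.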", "values": [
      {"smiles": "COc1ccccc1-c1sc2cc(F)ccc2c1-c1c(O)c(C)nn(C)c1=O", "note": "[3-003]", "herbicidal effect rating, C: oval-leafed pondweed": "4 (Herbicidal rate of 70% or more and less than 90%)"},
      {"smiles": "CCOc1ccccc1-c1sc2cc(F)ccc2c1-c1c(O)c(C)nn(C)c1=O", "note": "[3-006]", "herbicidal effect rating, C: oval-leafed pondweed": "5 (Herbicidal rate of 90% or more (almost completely withered))"}
    ]},
    {"test_system": "barnyard grass", "test": "Test Example 3: herbicidal effect by foliage application, Wagner pot (Table 18, symbol H)", "type": "in vivo, barnyard grass (Echinochloa crus-galli)", "settings": "amount of applied herbicide 320 g/ha", "method_in_brief": "(§1)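 Plants were sown in alluvial soil held under 0.1–0.5 cm standing water and grown 14 days in a greenhouse at 25–30 °C. An emulsifiable formulation, water-diluted to the set dose, was then sprayed onto the foliage, and effects were scored three weeks later using previously defined criteria.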", "values": [
      {"smiles": "COc1ccccc1-c1sc2cc(F)ccc2c1-c1c(O)c(C)nn(C)c1=O", "note": "[3-003]", "herbicidal effect on H: barnyard grass": "5 (Herbicidal rate of 90% or more (almost completely withered))"},
      {"smiles": "CCOc1ccccc1-c1sc2cc(F)ccc2c1-c1c(O)c(C)nn(C)c1=O", "note": "[3-006]", "herbicidal effect on H: barnyard grass": "5 (Herbicidal rate of 90% or more (almost completely withered))"}
    ]},
    {"test_system": "Chinese sprangletop", "test": "Test Example 3: herbicidal effect by foliage application, Wagner pot (Table 18, symbol D)", "type": "in vivo, chinese sprangletop (Leptochloa chinensis)", "settings": "amount of applied herbicide 320 g/ha", "method_in_brief": "as §1", "values": [
      {"smiles": "COc1ccccc1-c1sc2cc(F)ccc2c1-c1c(O)c(C)nn(C)c1=O", "note": "[3-003]", "herbicidal effect on D: Chinese sprangletop": "3 (Herbicidal rate of 40% or more and less than 70%)"},
      {"smiles": "CCOc1ccccc1-c1sc2cc(F)ccc2c1-c1c(O)c(C)nn(C)c1=O", "note": "[3-006]", "herbicidal effect on D: Chinese sprangletop": "4 (Herbicidal rate of 70% or more and less than 90%)"}
    ]},
    {"test_system": "southern crabgrass", "test": "Test Example 4: herbicidal effect by soil treatment (Table 19, symbol F)", "type": "in vivo, southern crabgrass (Digitaria ciliaris)", "settings": "amount of applied herbicide 320 g/ha", "method_in_brief": "(§2)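 Seeds were sown in sterilized diluvial soil and covered with about 1.5 cm of soil. An emulsion formulation diluted with water to a predetermined herbicide amount was sprayed evenly onto the soil surface. Plants grew in a greenhouse at 25° C. to 30° C., and the effect was scored three weeks after application using criteria from an earlier test.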", "values": [
      {"smiles": "COc1ccccc1-c1sc2cc(F)ccc2c1-c1c(O)c(C)nn(C)c1=O", "note": "[3-003]", "herbicidal effect, F: southern crabgrass": "4 (Herbicidal rate of 70% or more and less than 90%)"},
      {"smiles": "CCOc1ccccc1-c1sc2cc(F)ccc2c1-c1c(O)c(C)nn(C)c1=O", "note": "[3-006]", "herbicidal effect, F: southern crabgrass": "5 (Herbicidal rate of 90% or more (almost completely withered))"}
    ]},
    {"test_system": "green foxtail", "test": "Test Example 4: herbicidal effect by soil treatment (Table 19, symbol G)", "type": "in vivo, green foxtail (Setaria viridis)", "settings": "amount of applied herbicide 320 g/ha", "method_in_brief": "as §2", "values": [
      {"smiles": "COc1ccccc1-c1sc2cc(F)ccc2c1-c1c(O)c(C)nn(C)c1=O", "note": "[3-003]", "herbicidal effect, G: green foxtail": "5 (Herbicidal rate of 90% or more (almost completely withered))"},
      {"smiles": "CCOc1ccccc1-c1sc2cc(F)ccc2c1-c1c(O)c(C)nn(C)c1=O", "note": "[3-006]", "herbicidal effect, G: green foxtail": "5 (Herbicidal rate of 90% or more (almost completely withered))"}
    ]},
    {"test_system": "barnyard grass", "test": "Test Example 4: herbicidal effect by soil treatment (Table 19, symbol H)", "type": "in vivo, barnyard grass (Echinochloa crus-galli)", "settings": "amount of applied herbicide 320 g/ha", "method_in_brief": "as §2", "values": [
      {"smiles": "COc1ccccc1-c1sc2cc(F)ccc2c1-c1c(O)c(C)nn(C)c1=O", "note": "[3-003]", "herbicidal effect, H: barnyard grass": "4 (Herbicidal rate of 70% or more and less than 90%)"},
      {"smiles": "CCOc1ccccc1-c1sc2cc(F)ccc2c1-c1c(O)c(C)nn(C)c1=O", "note": "[3-006]", "herbicidal effect, H: barnyard grass": "5 (Herbicidal rate of 90% or more (almost completely withered))"}
    ]},
    {"test_system": "blackgrass", "test": "Test Example 4: herbicidal effect by soil treatment (Table 19, symbol J)", "type": "in vivo, blackgrass (Alopecurus myosuroides)", "settings": "amount of applied herbicide 320 g/ha", "method_in_brief": "as §2", "values": [
      {"smiles": "COc1ccccc1-c1sc2cc(F)ccc2c1-c1c(O)c(C)nn(C)c1=O", "note": "[3-003]", "herbicidal effect, J: blackgrass": "3 (Herbicidal rate of 40% or more and less than 70%)"},
      {"smiles": "CCOc1ccccc1-c1sc2cc(F)ccc2c1-c1c(O)c(C)nn(C)c1=O", "note": "[3-006]", "herbicidal effect, J: blackgrass": "5 (Herbicidal rate of 90% or more (almost completely withered))"}
    ]},
    {"test_system": "windgrass", "test": "Test Example 4: herbicidal effect by soil treatment (Table 19, symbol L)", "type": "in vivo, windgrass (Apera spica-venti)", "settings": "amount of applied herbicide 320 g/ha", "method_in_brief": "as §2", "values": [
      {"smiles": "COc1ccccc1-c1sc2cc(F)ccc2c1-c1c(O)c(C)nn(C)c1=O", "note": "[3-003]", "herbicidal effect, L: windgrass": "3 (Herbicidal rate of 40% or more and less than 70%)"},
      {"smiles": "CCOc1ccccc1-c1sc2cc(F)ccc2c1-c1c(O)c(C)nn(C)c1=O", "note": "[3-006]", "herbicidal effect, L: windgrass": "5 (Herbicidal rate of 90% or more (almost completely withered))"}
    ]},
    {"test_system": "redroot pigweed", "test": "Test Example 4: herbicidal effect by soil treatment (Table 19, symbol N)", "type": "in vivo, redroot pigweed (Amaranthus retroflexus)", "settings": "amount of applied herbicide 320 g/ha", "method_in_brief": "as §2", "values": [
      {"smiles": "COc1ccccc1-c1sc2cc(F)ccc2c1-c1c(O)c(C)nn(C)c1=O", "note": "[3-003]", "herbicidal effect, N: redroot pigweed": "5 (Herbicidal rate of 90% or more (almost completely withered))"},
      {"smiles": "CCOc1ccccc1-c1sc2cc(F)ccc2c1-c1c(O)c(C)nn(C)c1=O", "note": "[3-006]", "herbicidal effect, N: redroot pigweed": "5 (Herbicidal rate of 90% or more (almost completely withered))"}
    ]},
    {"test_system": "chickweed", "test": "Test Example 4: herbicidal effect by soil treatment (Table 19, symbol P)", "type": "in vivo, common chickweed (Stellaria media)", "settings": "amount of applied herbicide 320 g/ha", "method_in_brief": "as §2", "values": [
      {"smiles": "COc1ccccc1-c1sc2cc(F)ccc2c1-c1c(O)c(C)nn(C)c1=O", "note": "[3-003]", "herbicidal effect, P: chickweed": "4 (Herbicidal rate of 70% or more and less than 90%)"},
      {"smiles": "CCOc1ccccc1-c1sc2cc(F)ccc2c1-c1c(O)c(C)nn(C)c1=O", "note": "[3-006]", "herbicidal effect, P: chickweed": "5 (Herbicidal rate of 90% or more (almost completely withered))"}
    ]},
    {"test_system": "southern crabgrass", "test": "Test Example 5: herbicidal effect by foliage application, plastic box (Table 20, symbol F)", "type": "in vivo, southern crabgrass (Digitaria ciliaris)", "settings": "foliage application, 320 g/ha, three weeks after application", "method_in_brief": "(§3)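 Plants sown in sterilized diluvial soil and grown 14 days in a greenhouse at 25° C to 30° C, then sprayed on the foliage with the compound's emulsion diluted in water to a predetermined herbicide amount. Injury to weeds and crops scored three weeks after application on a visual rating scale.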", "values": [
      {"smiles": "COc1ccccc1-c1sc2cc(F)ccc2c1-c1c(O)c(C)nn(C)c1=O", "note": "[3-003]", "F: southern crabgrass, herbicidal effect grade": "5 (Herbicidal rate of 90% or more (almost completely withered))"},
      {"smiles": "CCOc1ccccc1-c1sc2cc(F)ccc2c1-c1c(O)c(C)nn(C)c1=O", "note": "[3-006]", "F: southern crabgrass, herbicidal effect grade": "5 (Herbicidal rate of 90% or more (almost completely withered))"}
    ]},
    {"test_system": "green foxtail", "test": "Test Example 5: herbicidal effect by foliage application, plastic box (Table 20, symbol G)", "type": "in vivo, green foxtail (Setaria viridis)", "settings": "foliage application, 320 g/ha, three weeks after application", "method_in_brief": "as §3", "values": [
      {"smiles": "COc1ccccc1-c1sc2cc(F)ccc2c1-c1c(O)c(C)nn(C)c1=O", "note": "[3-003]", "G: green foxtail, herbicidal effect grade": "5 (Herbicidal rate of 90% or more (almost completely withered))"},
      {"smiles": "CCOc1ccccc1-c1sc2cc(F)ccc2c1-c1c(O)c(C)nn(C)c1=O", "note": "[3-006]", "G: green foxtail, herbicidal effect grade": "5 (Herbicidal rate of 90% or more (almost completely withered))"}
    ]},
    {"test_system": "blackgrass", "test": "Test Example 5: herbicidal effect by foliage application, plastic box (Table 20, symbol J)", "type": "in vivo, blackgrass (Alopecurus myosuroides)", "settings": "foliage application, 320 g/ha, three weeks after application", "method_in_brief": "as §3", "values": [
      {"smiles": "COc1ccccc1-c1sc2cc(F)ccc2c1-c1c(O)c(C)nn(C)c1=O", "note": "[3-003]", "J: blackgrass, herbicidal effect grade": "5 (Herbicidal rate of 90% or more (almost completely withered))"},
      {"smiles": "CCOc1ccccc1-c1sc2cc(F)ccc2c1-c1c(O)c(C)nn(C)c1=O", "note": "[3-006]", "J: blackgrass, herbicidal effect grade": "5 (Herbicidal rate of 90% or more (almost completely withered))"}
    ]},
    {"test_system": "redroot pigweed", "test": "Test Example 5: herbicidal effect by foliage application, plastic box (Table 20, symbol N)", "type": "in vivo, redroot pigweed (Amaranthus retroflexus)", "settings": "foliage application, 320 g/ha, three weeks after application", "method_in_brief": "as §3", "values": [
      {"smiles": "COc1ccccc1-c1sc2cc(F)ccc2c1-c1c(O)c(C)nn(C)c1=O", "note": "[3-003]", "N: redroot pigweed, herbicidal effect grade": "5 (Herbicidal rate of 90% or more (almost completely withered))"},
      {"smiles": "CCOc1ccccc1-c1sc2cc(F)ccc2c1-c1c(O)c(C)nn(C)c1=O", "note": "[3-006]", "N: redroot pigweed, herbicidal effect grade": "5 (Herbicidal rate of 90% or more (almost completely withered))"}
    ]},
    {"test_system": "false cleavers", "test": "Test Example 5: herbicidal effect by foliage application, plastic box (Table 20, symbol Q)", "type": "in vivo, false cleavers (Galium spurium)", "settings": "foliage application, 320 g/ha, three weeks after application", "method_in_brief": "as §3", "values": [
      {"smiles": "COc1ccccc1-c1sc2cc(F)ccc2c1-c1c(O)c(C)nn(C)c1=O", "note": "[3-003]", "Q: false cleavers, herbicidal effect grade": "5 (Herbicidal rate of 90% or more (almost completely withered))"},
      {"smiles": "CCOc1ccccc1-c1sc2cc(F)ccc2c1-c1c(O)c(C)nn(C)c1=O", "note": "[3-006]", "Q: false cleavers, herbicidal effect grade": "5 (Herbicidal rate of 90% or more (almost completely withered))"}
    ]},
    {"test_system": "persian speedwell", "test": "Test Example 5: herbicidal effect by foliage application, plastic box (Table 20, symbol R)", "type": "in vivo, Persian speedwell (Veronica persica)", "settings": "foliage application, 320 g/ha, three weeks after application", "method_in_brief": "as §3", "values": [
      {"smiles": "COc1ccccc1-c1sc2cc(F)ccc2c1-c1c(O)c(C)nn(C)c1=O", "note": "[3-003]", "R: persian speedwell, herbicidal effect grade": "5 (Herbicidal rate of 90% or more (almost completely withered))"},
      {"smiles": "CCOc1ccccc1-c1sc2cc(F)ccc2c1-c1c(O)c(C)nn(C)c1=O", "note": "[3-006]", "R: persian speedwell, herbicidal effect grade": "5 (Herbicidal rate of 90% or more (almost completely withered))"}
    ]}
  ]
}
